Results as given in US11911407B2, “Therapies for cardiomyopathy” (UNIVERSITY COLLEGE DUBLIN, NATIONAL UNIVERSITY OF IRELAND, priority 2013, dated 2024).
“Also recorded” adds a separate entry of the source.

Assays:
[1] = test system: spontaneously hypertensive rats (SHR); experiment: Doppler echocardiography in rat model of hypertensive heart disease; assay type: in vivo; conditions: SHR-5AZA vs SHR-V, 10 mg/kg i.p. alternate day, 12 weeks
Description: Approval from the local Animal Research Ethics Committee was sought and obtained to investigate the anti-fibrotic impact of 5-aza on cardiac function and fibrosis. Male spontaneously hypertensive rats (SHR) and their normotensive counterpart Wistar Kyote rats (WKY) were purchased from Charles River and utilised for the study. From 10 weeks of age, the animals received alternate day intra-peritoneal injection of either PBS (vehicle) or 5-aza (10 mg/kg) for 12 weeks. The 5-aza was purchased from Sigma, diluted in sterile PBS and filtered through a 0.22 μm filter. Aliquots were stored at −20° C. and were used within 5 days of reconstitution. The study design consisted of three groups of 10 animals; group 1 included 10 SHR rats who received 5-aza (SH R-5-aza); group 2 included 10 SHR rats who received PBS vehicle (SHR-V); group 3 included 10 WKY rats who received PBS vehicle (WKY-V). All rats were housed in the animal facility under identical conditions, with a 12 hour light-dark cycle. Cardiac structure and function was assessed at baseline and at the end of the study (12 weeks) using Echocardiography. During the procedure, the animals were under inhaled anaesthesia (isoflurane 2%) and body temperature was maintained using a heat mat. Echocardiography assessment was performed using a Vevo 770 High-Resolution In Vivo Micro-Imaging System (Visualsonics) with a […] transducer. M-mode and 2-dimensional (2D) images were obtained in the parasternal long- and short-axis views. The interventricular septal thickness, posterior wall thickness, and LV diameter were measured in systole and diastole at the tips of the papillary muscle. Measurements were taken over three consecutive cardiac cycles and averaged. Left ventricular mass (LVM) was calculated according to Devereux's formula and indexed to tibial length (LVMi). Blinded analysis was performed by two separate independent observers.

[2] = test system: spontaneously hypertensive rats (SHR); experiment: Picrosirius red staining with automated digital quantification of perivascular collagen; assay type: in vivo, rat; conditions: SHR-5AZA vs SHR-V, 12 weeks
Description: Approval from the local Animal Research Ethics Committee was sought and obtained to investigate the anti-fibrotic impact of 5-aza on cardiac function and fibrosis. Male spontaneously hypertensive rats (SHR) and their normotensive counterpart Wistar Kyote rats (WKY) were purchased from Charles River and utilised for the study. From 10 weeks of age, the animals received alternate day intra-peritoneal injection of either PBS (vehicle) or 5-aza (10 mg/kg) for 12 weeks. The 5-aza was purchased from Sigma, diluted in sterile PBS and filtered through a 0.22 μm filter. Aliquots were stored at −20° C. and were used within 5 days of reconstitution. The study design consisted of three groups of 10 animals; group 1 included 10 SHR rats who received 5-aza (SH R-5-aza); group 2 included 10 SHR rats who received PBS vehicle (SHR-V); group 3 included 10 WKY rats who received PBS vehicle (WKY-V). All rats were housed in the animal facility under identical conditions, with a 12 hour light-dark cycle. […]
The degree of collagen deposition was quantified by automated digital image analysis. […] A positive pixel count algorithm was used to automatically quantify the area occupied by the dark pink stain colours representing collagen within each scanned slide image. […] A collagen volume fraction was calculated based on the percent of dark pink collagen staining quantified within a tissue section.

[3] = test system: spontaneously hypertensive rats (SHR); experiment: Hydroxyproline assay of total collagen in myocardium; assay type: in vivo, rat; conditions: SHR-5AZA vs SHR-V, 12 weeks
Description: (§1) Approval from the local Animal Research Ethics Committee was sought and obtained to investigate the anti-fibrotic impact of 5-aza on cardiac function and fibrosis. Male spontaneously hypertensive rats (SHR) and their normotensive counterpart Wistar Kyote rats (WKY) were purchased from Charles River and utilised for the study. From 10 weeks of age, the animals received alternate day intra-peritoneal injection of either PBS (vehicle) or 5-aza (10 mg/kg) for 12 weeks. The 5-aza was purchased from Sigma, diluted in sterile PBS and filtered through a 0.22 μm filter. Aliquots were stored at −20° C. and were used within 5 days of reconstitution. The study design consisted of three groups of 10 animals; group 1 included 10 SHR rats who received 5-aza (SH R-5-aza); group 2 included 10 SHR rats who received PBS vehicle (SHR-V); group 3 included 10 WKY rats who received PBS vehicle (WKY-V). All rats were housed in the animal facility under identical conditions, with a 12 hour light-dark cycle.

cardiac myoblast cells = experiment: Cardiac myoblast gene expression of MYBP-C and ACTA1 in vitro by real-time PCR; assay type: cell-based; conditions: 4 day treatment
Description: Confirmation of the impact of DNA methylation inhibitors can up-regulate the expression levels of MYBP-C and ACTA1 was assessed in vitro using cardiac myoblast cells. Cells were grown in culture for 4 days either in the presence or absence of 5-azacytidine (5AZA) or 5-aza-2-deoxycytidine (5AZA_DC). Gene expression was quantified using real-time PCR.

[4] = test system: spontaneously hypertensive rats (SHR); experiment: Cardiac tissue gene expression of MYBP-C and ACTA1 by quantitative real-time PCR; assay type: in vivo, rat
Description: FIGS. 17 and 18 depict the effect of 5AZA treatment on cardiac expression levels of MYBP-C and ACTA1. Gene expression levels of MYBP-C and ACTA1 were assessed using quantitative real-time PCR in the cardiac tissue of SHR-V and SHR-AZA. […] Results represent mean and standard error of the mean. * p<0.05, *** p<0.001.
as §1

[5] = test system: spontaneously hypertensive rats (SHR); experiment: Myocyte area digital analysis of haematoxylin and eosin stained cardiac tissue; assay type: in vivo, rat; conditions: SHR-5AZA vs SHR-V
Description: FIG. 16 depicts the effect of 5AZA treatment on myocyte area in vivo. […] Male spontaneously hypertensive rats (SHR) and their normotensive counterpart Wistar Kyote rats (WKY) were purchased from Charles River and utilised for the study. From 10 weeks of age, the animals received alternate day intra-peritoneal injection of either PBS (vehicle) or 5-aza (10 mg/kg) for 12 weeks. The 5-aza was purchased from Sigma, diluted in sterile PBS and filtered through a 0.22 μm filter. Aliquots were stored at −20° C. and were used within 5 days of reconstitution. The study design consisted of three groups of 10 animals; group 1 included 10 SHR rats who received 5-aza (SH R-5-aza); group 2 included 10 SHR rats who received PBS vehicle (SHR-V); group 3 included 10 WKY rats who received PBS vehicle (WKY-V). All rats were housed in the animal facility under identical conditions, with a 12 hour light-dark cycle.

HCF cells [6] = experiment: DNA demethylation with 5-aza-2′-deoxycytidine in hypoxic HCF cells, pro-fibrotic protein expression; assay type: cell-based, human; conditions: for expression of ASMA / expression of collagen 1 / expression of collagen 3: hypoxic fibroblasts with TGFβ; for expression of ASMA / expression of collagen 1 / expression of collagen 3 / pro-fibrotic effects of / responses to TGFβ: 1-5 μM; for pro-fibrotic effects of / responses to TGFβ: hypoxic fibroblasts, up to eight days
Description: Where indicated, HCF cells were exposed to a 1% oxygen environment for up to 8 days using a hypoxic chamber (Coy Laboratories). The effects of 10 ng/ml recombinant TGFβ1 treatment (R&D Systems) under these conditions were investigated. When required, cells were treated for 24 hours with 1 mM of the prolyl hydroxylase inhibitor DMOG (Sigma) to simulate hypoxia through the induction of HIF under normoxic conditions. Whole cell protein lysates were generated using RIPA Lysis Buffer (Millipore), containing a protease inhibitor cocktail (Roche). Nuclear protein extracts were obtained using the Ne-PeR Nuclear and Cytoplasmic extraction Reagents, according to manufacturer's instructions (Pierce Biotechnology). Protein concentrations were determined using the BCA Protein Assay Kit (Pierce). 10-20 μg of protein lysates were denatured, reduced and resolved on SDS-polyacrylamide gels by SDS-PAGE before transfer onto 0.45 μm pore size Immobilon-P polyvinylidene fluoride (PVDF) membranes (Millipore). Membranes were incubated with blocking buffer (TBS, 0.25% Tween-20, 0.1% serum from species that secondary antibody was raised in, and 5% fat free skimmed milk) for 1 hour at room temperature. Membranes were subsequently probed overnight with either anti-ASMA (Sigma), anti-collagen 1, anti-DNMT3B (Imgenex), or anti-hypoxia inducible factor 1α (HIF-1α) (Novus Biologicals). Detection of the specific binding of the primary antibody was achieved using HRP-conjugated secondary antibodies, followed by signal detection with Immobilon Western chemiluminescent HRP substrate (Millipore) according to the manufacturer's instructions. Anti-alpha tubulin (Sigma) was used to verify equal loading. For demethylation analysis, cells were treated with 1-5 μM 5-aza-2′-deoxycytidine (5-azadc; Sigma) for up to eight days. The effect of global DNA methylation inhibition on pro-fibrotic protein expression was assessed using Western blotting.

HCF cells [7] = experiment: DMOG treatment of HCF cells in normoxia (Western blot); assay type: cell-based, human; conditions: 1 mM DMOG, 24 hours
Description: Primary human cardiac fibroblast cells from the adult ventricle (HCF) were purchased from ScienCell Research Laboratories. Primary cells were derived from a single person. Until required for experiments, cells were cultured and maintained in Dulbecco's modified eagles medium (DMEM) (Gibco), supplemented with 10% Fetal Bovine Serum (Gibco) and penicillin-streptomycin antibiotics (Gibco) in a 5% CO2 humidified incubator kept at 37° C.
(§2) Where indicated, HCF cells were exposed to a 1% oxygen environment for up to 8 days using a hypoxic chamber (Coy Laboratories). The effects of 10 ng/ml recombinant TGFβ1 treatment (R&D Systems) under these conditions were investigated. When required, cells were treated for 24 hours with 1 mM of the prolyl hydroxylase inhibitor DMOG (Sigma) to simulate hypoxia through the induction of HIF under normoxic conditions.
Whole cell protein lysates were generated using RIPA Lysis Buffer (Millipore), containing a protease inhibitor cocktail (Roche). Nuclear protein extracts were obtained using the Ne-PeR Nuclear and Cytoplasmic extraction Reagents, according to manufacturer's instructions (Pierce Biotechnology). Protein concentrations were determined using the BCA Protein Assay Kit (Pierce). […]

HCF cells [8] = experiment: TGFβ1 treatment of HCF cells, quantitative real-time PCR; assay type: cell-based, human
Description: as §2
Gene expression changes were measured in HCF cells using QPCR as described in human cardiac tissue analysis methods section. RNA isolation from cells was achieved using NucleoSpin RNA II Kit (Macherey-Nagel). QPCR data was analysed using the delta delta CT method.

[9] = 10 ng/ml TGFβ1, 8 days hypoxia (1% oxygen)

**Q.** What does the source list for Nc1ncn([C@@H]2O[C@H](CO)[C@@H](O)[C@H]2O)c(=O)n1 [5AZA, 5-azacytidine]?
**A.** cardiac hypertrophy [1]: significant reduction; E prime (E′), diastolic dysfunction ([1]; 10 mg/kg): significantly approved; also recorded: significantly improved; Ejection fraction (EF) ([1]; 10 mg/kg): significantly increased; also recorded: significantly improved; interventricular septum diameter (in diastole) ([1]; 10 mg/kg): significant reduction; also recorded: reduced; left ventricular mass index (LVMi) ([1]; 10 mg/kg): significant reduction; also recorded: reduced; perivascular collagen [2]: significantly reduced; also recorded: significant decrease; total collagen / collagen deposition within the myocardium (hydroxyproline) [3]: significant reduction; ACTA1 gene expression in cardiac myoblast cells (cardiac myoblast cells): significant increase; MYBP-C gene expression in cardiac myoblast cells (cardiac myoblast cells): significant increase; ACTA1 expression in cardiac tissue ([4]; SHR animals treated with 5AZA): significant increase; MYBP-C expression within the myocardium ([4]; SHR animals treated with 5AZA): significant increase; increase in ACTA1 gene expression in cardiac tissue ([4]; SHR-AZA vs SHR-V): 4 fold; increase in MYBP-C gene expression in cardiac tissue ([4]; SHR-AZA vs SHR-V): 4 fold; myocyte area [5]: significantly smaller; also recorded: significant decrease; pro-fibrotic impact of hypoxia (HCF cells [6]; FIGS. 7A-7C): reverses

**Q.** For Nc1ncn([C@H]2C[C@H](O)[C@@H](CO)O2)c(=O)n1 [5AZA_DC, 5-aza-2′-deoxycytidine], which “ACTA1 gene expression in cardiac myoblast cells” value (cardiac myoblast cells) is on record?
**A.** significant increase

**Q.** And the “MYBP-C gene expression in cardiac myoblast cells” value (cardiac myoblast cells)?
**A.** significant increase

**Q.** And the “expression of ASMA” value (HCF cells [6])?
**A.** reduced expression

**Q.** What about the “expression of collagen 1” value (HCF cells [6]) of the same compound?
**A.** reduced expression

**Q.** And the “expression of collagen 3” value (HCF cells [6])?
**A.** reduced expression

**Q.** And the “expression of ASMA” value (HCF cells [6]; listed as 5-aza2dC)?
**A.** significantly reduced

**Q.** What about the “expression of collagen 1” value (HCF cells [6]; listed as 5-aza2dC) of the same compound?
**A.** significantly reduced

**Q.** And the “expression of collagen 3” value (HCF cells [6]; listed as 5-aza2dC)?
**A.** significantly reduced

**Q.** And the “pro-fibrotic effects of / responses to TGFβ” value (HCF cells [6])?
**A.** significantly reduced

**Q.** And the “pro-fibrotic effects of / responses to TGFβ” value (HCF cells [6]; listed as 5-aza2dC)?
**A.** inhibited

**Q.** What does the source list for COC(=O)CNC(=O)C(=O)OC [DMOG]?
**A.** expression of DNMT3B (HCF cells [7]): increased expression; nuclear HIF-1α protein expression (HCF cells [7]): stabilises

**Q.** With “TGFβ1: human recombinant transforming growth factor beta 1, pro-fibrotic cytokine” as the compound, how does the ASMA gene expression (HCF cells [8]; 10 ng/ml TGFβ1) read?
**A.** significantly increased

**Q.** What about the “collagen 1 gene expression” value (HCF cells [8]; 10 ng/ml TGFβ1) of the same compound?
**A.** significantly increased

**Q.** And the ASMA gene expression (HCF cells [8]; [9])?
**A.** further enhanced

**Q.** What about the “collagen 1 gene expression” value (HCF cells [8]; [9]) of the same compound?
**A.** further enhanced
